These results are taken from the supplement of paper PMC10307832.

What all share (assay): relative viability (nuclei count vs DMSO), 5 days (fraction); higher = more cells survive
Compound in the assay “XMD8-85 + Bortezomib”: CN1CCN(CC1)C2=CC(=C(C=C2)NC3=NC=C4C(=N3)N(C5=CC=CC=C5C(=O)N4C)C)OC [XMD8-85] + CC(C)C[C@H](NC(=O)[C@H](Cc1ccccc1)NC(=O)c1cnccn1)B(O)O [Bortezomib] (partner 0.002 µM)
Summed up: (§1)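 Lung cancer cell lines in 1536-well plates were dosed by pin tool the day after seeding, either with one drug alone or with a fixed anchor-drug dose plus five library-drug doses (not always all listed) in √10 steps. After 5 days, cells were fixed and their nuclei stained in one step (final 0.05% Triton X-100, 1% formaldehyde, 1 ug/ml Hoechst), then counted on 4× images. Relative viability is the nuclei count in treated wells divided by that in vehicle wells. Values are medians of duplicate plates.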

Compound in the assay “4EGI-1 + Trametinib”: O=C(O)C(Cc1ccccc1[N+](=O)[O-])=NNc1nc(-c2ccc(Cl)c(Cl)c2)cs1 (mixture of isomers) [4EGI-1] + CC(=O)Nc1cccc(-n2c(=O)n(C3CC3)c(=O)c3c(Nc4ccc(I)cc4F)n(C)c(=O)c(C)c32)c1 [Trametinib] (partner 0.02 µM)
The method in brief:
as §1

Compound in the assay “4EGI-1 + Pictilisib”: O=C(O)C(Cc1ccccc1[N+](=O)[O-])=NNc1nc(-c2ccc(Cl)c(Cl)c2)cs1 (mixture of isomers) [4EGI-1] + CS(=O)(=O)N1CCN(Cc2cc3nc(-c4cccc5[nH]ncc45)nc(N4CCOCC4)c3s2)CC1 [Pictilisib] (partner 1 µM)
Summed up:
as §1

Compound in the assay “4EGI-1 + Crizotinib”: O=C(O)C(Cc1ccccc1[N+](=O)[O-])=NNc1nc(-c2ccc(Cl)c(Cl)c2)cs1 (mixture of isomers) [4EGI-1] + C[C@@H](Oc1cc(-c2cnn(C3CCNCC3)c2)cnc1N)c1c(Cl)ccc(F)c1Cl [Crizotinib] (partner 1 µM)
Summed up:
as §1

For the cell line NCI-H1792, the relative viability with XMD8-85 + Bortezomib (first compound 0.08 µM) is 0.985; with XMD8-85 + Bortezomib (first compound 0.253 µM), 0.776; with XMD8-85 + Bortezomib (first compound 2.53 µM), 0.929; with XMD8-85 + Bortezomib (first compound 8 µM), 0.838; with 4EGI-1 + Trametinib (first compound 0.5 µM) it was 0.524; with 4EGI-1 + Trametinib (first compound 1.581 µM), 0.428. Besides, the relative viability with 4EGI-1 + Trametinib (first compound 5 µM) was 0.359; with 4EGI-1 + Trametinib (first compound 15.81 µM), 0.479; with 4EGI-1 + Trametinib (first compound 50 µM), 0.366; in the assay with 4EGI-1 + Pictilisib (first compound 0.5 µM), 0.321; in the assay with 4EGI-1 + Pictilisib (first compound 1.581 µM), 0.209; in the assay with 4EGI-1 + Pictilisib (first compound 5 µM), 0.257. The relative viability in the assay with 4EGI-1 + Pictilisib (first compound 15.81 µM) is 0.214; in the assay with 4EGI-1 + Pictilisib (first compound 50 µM), 0.145; with 4EGI-1 + Crizotinib (first compound 0.5 µM), 0.963; with 4EGI-1 + Crizotinib (first compound 1.581 µM) it was 0.772; with 4EGI-1 + Crizotinib (first compound 5 µM), 0.963; with 4EGI-1 + Crizotinib (first compound 15.81 µM), 0.842. Further, in the assay with 4EGI-1 + Crizotinib (first compound 50 µM), the relative viability is 0.823.
